Key:
Format in all cases: physicochemical
[1] = Bulk stability (solid state, 1 week; HPLC, XRPD, IC, color); set-up: key to CL (color): A: no change of color; B: slight discoloration; C: medium discoloration; D: strong discoloration
Protocol: Bulk stability of free form Pattern B was evaluated at 25° C./92.5% RH in an open container, at 40° C./75% RH in an open container and at 60° C. in a tight container over 1 week.

[2] = Solubility at 37° C. in buffers and biorelevant media, XRPD of residual solid; conditions: for solubility at 2 h / solubility at 24 h: thermodynamic from solid
Summary of the method: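 Solids equivalent to 10 mg anhydrous free form were stirred in 5 mL of each medium (pH 1.2 HCl, pH 4.5 acetate, pH 6.8 phosphate, water, FaSSGF, FaSSIF-v1, FeSSIF-v1, HPMC/Pluronic in acetate) at 37 °C, 400 rpm. Sampled at 2 h and 24 h; supernatant analyzed by HPLC plus pH, 24 h residual solid by XRPD.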

[3] = Hygroscopicity by dynamic vapor sorption (DVS) at 25° C.; conditions: for Desorp. (%) / Sorp. (%): DVS 25° C.
Summary of the method: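 About 5–10 mg sample was cycled 40-0-95-0-40% RH in 10% steps at 25 °C with water vapour. Equilibrium criterion was 0.002 %/min dm/dt, with a minimum 60 min stability duration and a maximum 360 min per stage.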

[4] = Bulk stability (solid state, 1 week; HPLC, XRPD, IC, color); conditions: sodium salt
[5] = 25° C./92.5% RH open, 40° C./75% RH open, 60° C. tight container
[6] = Solid state, 25° C./92.5% RH, open
[7] = Solid state, 40° C./75% RH, open
[8] = aqueous buffer, pH 4.5 acetate buffer (50 mM), 37° C.
[9] = aqueous buffer, pH 6.8 phosphate buffer (50 mM), 37° C.
[10] = aqueous with cosolvent or surfactant or cyclodextrin, 2% HPMC + 1% Pluronic F68 in pH 4.5 acetate buffer (50 mM), 37° C.
[11] = fassgf or other biorelevant, FaSSGF, pH 1.6, 37° C.
[12] = simulated gastric fluid, pH 1.2 HCl buffer, 37° C.

For CCOc1cc(C(=O)N(C)Cc2cnc(CO)c3cn[nH]c23)ccc1-c1cc(F)cc(F)c1.[Na] [Sodium salt Pattern A, 2-ethoxy-3′,5′-difluoro-N-((4-(hydroxymethyl)-1H-pyrazolo[4,3-c]pyridin-7-yl)methyl)-N-methyl-[1,1′-biphenyl]-4-carboxamide sodium salt], the “Bulk stability, chemical and physical” value [1, 5] was “chemically stable but physically unstable”, the “Degradation by HPLC” value [1, 5] was “no obvious degradation” and the “Bulk (HPLC) Purity” value [1, 6] was 98.7%. The “CL (color)” value [1, 6] was “A”, the “Bulk (HPLC) Purity” value [1, 7] was 98.7% and the “CL (color)” value [1, 7] was “A”. For the same molecule, the “Bulk (XRPD)” value ([1]; Solid state, 40° C./75% RH, open, sodium salt) was “dissociated to free form Pattern A”, the “Bulk (HPLC) Purity” value ([1]; Solid state, 60° C., closed) was 98.7% and the “CL (color)” value ([1]; Solid state, 60° C., closed) was “A”. For the same molecule, the “pH of supernatant at 24 h” value ([2]; 2% HPMC + 1% Pluronic F68 in pH 4.5 acetate buffer (50 mM), 37° C.) was “(4.7)”, the “Solubility compared with the free form Pattern A” value ([2]; 2% HPMC+1% Pluronic F68 in acetate buffer (pH 4.5)) was “obviously improved solubility” and the “pH of supernatant at 24 h” value ([2]; FaSSGF, pH 1.6, 37° C.) was “(1.8)”. For the same molecule, the “pH of supernatant at 24 h” value ([2]; FaSSIF-v1, pH 6.5, 37° C.) was “(6.7)”, the “pH of supernatant at 24 h” value ([2]; FeSSIF-v1, pH 5.0, 37° C.) was “(5.1)” and the “pH of supernatant at 24 h” value ([2]; Water, 37° C.) was “(11.1)”. It also gave a solubility at 2 h [2, 8] of 9.3 µg/mL, a solubility at 24 h [2, 8] of 7.4 µg/mL and a solubility at 2 h [2, 9] of 3.1 µg/mL. It also gave a solubility at 24 h [2, 9] of 2.8 µg/mL, a solubility at 2 h [2, 10] of 273 µg/mL and a solubility at 24 h [2, 10] of 260 µg/mL. For the same molecule, the solubility at 2 h [2, 11] was 664 µg/mL, the solubility at 24 h [2, 11] was 630 µg/mL and the “pH of supernatant at 24 h” value ([2]; pH 1.2 HCl buffer, 37° C.) was “(1.3)”. For the same molecule, the “pH of supernatant at 24 h” value ([2]; pH 4.5 acetate buffer (50 mM), 37° C.) was “(4.6)”, the “pH of supernatant at 24 h” value ([2]; pH 6.8 phosphate buffer (50 mM), 37° C.) was “(7.0)” and the solubility at 2 h [2, 12] was 608 µg/mL. For the same molecule, the solubility at 24 h [2, 12] was 511 µg/mL, the solubility at 2 h ([2]; FaSSIF-v1, pH 6.5, 37° C.) was 10.2 µg/mL and the solubility at 24 h ([2]; FaSSIF-v1, pH 6.5, 37° C.) was 13.1 µg/mL. The solubility at 2 h ([2]; FeSSIF-v1, pH 5.0, 37° C.) was 144 µg/mL, the solubility at 24 h ([2]; FeSSIF-v1, pH 5.0, 37° C.) was 149 µg/mL and the solubility at 2 h ([2]; Water, 37° C.) was 7.7 µg/mL. The solubility at 24 h ([2]; Water, 37° C.) was 8.2 µg/mL, the “Desorp. (%)” value ([3]; 0% RH, 1st desorption) was 0.05% and the “Sorp. (%)” value ([3]; 0% RH, 1st sorption) was 0.05%. The “Desorp. (%)” value ([3]; 0% RH, 2nd desorption) was 0.00%, the “Sorp. (%)” value ([3]; 0% RH, 2nd sorption) was 0.00% and the “Desorp. (%)” value ([3]; 10% RH, 1st desorption) was 0.20%. The “Sorp. (%)” value ([3]; 10% RH, 1st sorption) was 0.17%, the “Desorp. (%)” value ([3]; 10% RH, 2nd desorption) was 0.18% and the “Sorp. (%)” value ([3]; 10% RH, 2nd sorption) was 0.14%. The “Desorp. (%)” value ([3]; 20% RH, 1st desorption) was 0.28%, the “Sorp. (%)” value ([3]; 20% RH, 1st sorption) was 0.23% and the “Desorp. (%)” value ([3]; 20% RH, 2nd desorption) was 0.25%. For the same molecule, the “Sorp. (%)” value ([3]; 20% RH, 2nd sorption) was 0.21%, the “Desorp. (%)” value ([3]; 30% RH, 1st desorption) was 0.35% and the “Sorp. (%)” value ([3]; 30% RH, 1st sorption) was 0.30%. The “Desorp. (%)” value ([3]; 30% RH, 2nd desorption) was 0.33%, the “Sorp. (%)” value ([3]; 30% RH, 2nd sorption) was 0.28% and the “Desorp. (%)” value ([3]; 40% RH, 1st desorption) was 0.45%. For the same molecule, the “Sorp. (%)” value ([3]; 40% RH, 1st sorption) was 0.38%, the “Desorp. (%)” value ([3]; 40% RH, 2nd desorption) was 0.94% and the “Sorp. (%)” value ([3]; 40% RH, 2nd sorption) was 0.38%. The “Sorp. (%)” value ([3]; 50% RH, 1st sorption) was 0.49%, the “Desorp. (%)” value ([3]; 50% RH, 2nd desorption) was 1.69% and the “Sorp. (%)” value ([3]; 60% RH, 1st sorption) was 0.94%. For the same molecule, the “Desorp. (%)” value ([3]; 60% RH, 2nd desorption) was 2.23%, the “Sorp. (%)” value ([3]; 70% RH, 1st sorption) was 1.87% and the “Desorp. (%)” value ([3]; 70% RH, 2nd desorption) was 2.55%. The “Sorp. (%)” value ([3]; 80% RH, 1st sorption) was 2.71%, the “Desorp. (%)” value ([3]; 80% RH, 2nd desorption) was 3.05% and the “Sorp. (%)” value ([3]; 90% RH, 1st sorption) was 4.13%. The “Desorp. (%)” value ([3]; 90% RH, 2nd desorption) was 4.35%, the “Sorp. (%)” value ([3]; 95% RH, 1st sorption) was 6.60% and the “Desorp. (%)” value ([3]; 95% RH, 2nd desorption) was 6.60%. The “XRPD after DVS test” value ([3]; DVS at 25° C., sodium salt) was “No form change”, the “Bulk (XRPD)” value ([4]; 25° C./92.5% RH, open) was “dissociated to free form Pattern A” and the “Bulk (XRPD)” value ([4]; 60° C., closed) was “No form change”.

— patent publication US20250084080A1, “CRYSTALLINE AND SALT FORMS OF AN NLRP3 INHIBITOR” (BioAge Labs, Inc., priority 2023, published 2025)
